Several values for one entry are separate records, joined by “and”; a condition that tells them apart may be missing. Identical values can stand only once.
Key:
Louis pulmonary cancer = experiment: Antitumor effect and weight change after single caudate vein administration to mice with subcutaneously transplanted Louis pulmonary cancer
Description: (§1) In FIG. 5, calculated were duration integrations (up to 17 days since drug treatment) of relative values in a change in a tumor volume and a weight change on a zero day, and the ratios of the drug-treated group to the drug-non-treat group in the values were shown as an antitumor effect and a weight change respectively. Further, the drug was administered once from a caudate vein to a normal C57BL6/N mouse (n=4, male, 6 ages in week) to evaluate a urea nitrogen (BUN) value in blood plasma after 6 days. […] The ratio of the drug-treated group to the drug-non-treat group in this BUN value was calculated as well, and the relative BUN value to the CDDP-equivalent dosage was shown in FIG. 5(C).

[1] = Blood plasma platinum concentration and accumulation of platinum in tumor and principal organs after caudate vein administration to tumor-bearing mice
Description: Evaluated were a change in a blood plasma platinum concentration and a change with the passage of time in accumulation of platinum in the principal organs observed when free CDDP and the CDDP-encapsulating micelle were administered from a caudate vein to a C57BL6/N mouse (n=4, male, 6 ages in week) in which Louis pulmonary cancer was subcutaneously transplanted to a hypogastric region, and the results thereof are shown in FIG. 4.

[2] = Urea nitrogen (BUN) value in blood plasma 6 days after single caudate vein administration to normal mice (index for nephrotoxicity); conditions: normal mouse, 6 days after single administration, ratio to non-treated group
Description: as §1

[3] = 0–24 hours, tissue platinum concentration-time curve

cis-Diaminedichloroplatinum (II) [CDDP]
toxic death (Louis pulmonary cancer; 12 mg/kg): one mouse out of 3 mice
weight change (Louis pulmonary cancer; mouse, in vivo): reduction in the weight
antitumor effect (Louis pulmonary cancer; single caudate vein administration, tumor volume integration up to 17 days, ratio to non-treated group): increase in the antitumor effect
Kidney AUC/tumor AUC [1, 3]: 3.9 and 7.7
Liver AUC/tumor AUC [1, 3]: 2.6 and 2.7
Muscle AUC/tumor AUC [1, 3]: 0.13 and 0.17
Spleen AUC/tumor AUC [1, 3]: 0.31 and 0.43
accumulation of platinum in a kidney ([1]; immediately after administration (about 15 minutes)): high accumulation immediately after administration
relative BUN value [2]: rise in the BUN value
